From US20050101595A1, “N-containing cycloalkyl-substituted amino-thiazole derivatives and pharmaceutical compositions for inhibiting cell proliferation and methods for their use” (PFIZER INC., priority 2003, published 2005)
Where two headings read alike, the source gives them in different places.

Assays:
HCT-116 cell line = test: Inhibition of cell growth, tetrazolium salt (MTT) assay; format: cell-based; conditions: for inhibition at 0.175 µM / inhibition at 0.25 µM / IC50: Homo sapiens; for inhibition at 0.175 µM: HCT-116, HCT-116 cells, compound at 0.175 uM; for inhibition at 0.175 µM / IC50: MTT; for inhibition at 0.25 µM: HCT-116, HCT116 cells, read-out: % Inhibition HCT116 @ 250 nM; for IC50: HCT-116, 120 h, three to five days, read-out: HCT-116 IC50
Protocol: Inhibition of Cell Growth: Assessment of Cytotoxicity:
Inhibition of cell growth was measured using the tetrazolium salt assay, which is based on the ability of viable cells to reduce 3-(4,5-dimethylthiazol-2-yl)-2,5-[2H]-diphenyltetrazolium bromide (MTT) to formazan (Mossman, Journal of Immunological Methods, vol. 65 (1983), pp. 55-58). The water-insoluble purple formazan product was then detected spectrophotometrically. The HCT-116 cell line was used as a representative cancer cell line and grown in 96-well plates. Cells were plated in McCoy's 5A Medium at a volume of 135 μl/well. Plates were incubated for four hours before addition of inhibitor compounds. Different concentrations of inhibitor compounds were added in 0.5% (v/v) dimethylsulfoxide (15 μLuwell), and cells were incubated at 37° C. (5% CO2) for three to five days. At the end of the incubation, MTT was added to a final concentration of 0.2 mg/mL, and cells were incubated for 4 hours more at 37° C. After centrifugation of the plates and removal of medium, the absorbance of the formazan (solubilized in dimethylsulfoxide) was measured at 540 nm. […] All results were compared to control cells treated only with 0.5% (v/v) dimethylsulfoxide.

CDK2/Cyclin A = CDK2/Cyclin A (Homo sapiens, UniProt P24941); test: Inhibition of CDK2/Cyclin A Retinoblastoma Kinase Activity; format: biochemical; conditions: read-out: % inhibition of CDK2 (@ 0.05 μM), compound at 0.05 μM
Protocol: Cyclin-dependent kinase activity was measured by quantifying the enzyme-catalyzed, time-dependent incorporation of radioactive phosphate from [^32P]ATP or [^33P]ATP into a protein substrate. Unless noted otherwise, assays were performed in 96-well plates in a total volume of 50 μL, in the presence of 10 mM HEPES (N-[2-hydroxyethyl]piperazine-N′-[2-ethanesulfonic acid]) (pH 7.4), 10 mM MgCl2, 25 μM adenosine triphosphate (ATP), 1 mg/mL ovalbumin, 5 μg/mL leupeptin, 1 mM dithiothreitol, 10 mM β-glycerophosphate, 0.1 mM sodium vanadate, 1 mM sodium fluoride, 2.5 mM ethylene glycol-bis(β-aminoethyl ether)-N,N,N′N′-tetraacetic acid (EGTA), 2% (v/v) dimethylsulfoxide, and 0.03-0.4 μCi [^32/33P]ATP per reaction. Reactions were initiated with enzyme, incubated at 30° C., and terminated after 20 minutes by the addition of ethylenediaminetetraacetic acid (EDTA) to 250 mM. The phosphorylated substrate was then captured on a nitrocellulose or phosphocellulose membrane using a 96-well filtration manifold, and unincorporated radioactivity was removed by repeated washing with 0.85% phosphoric acid. Radioactivity was quantified by exposing the dried membranes to a phosphorimager.
Inhibition was measured relative to control wells that contained all reaction components including 2% (v/v) DMSO but no compound, after subtraction of background radioactivity measured in the absence of enzyme. Apparent Ki values of discrete compounds were measured by assaying enzyme activity in the presence of different inhibitor compound concentrations and subtracting the background radioactivity measured in the absence of enzyme. The kinetic parameters (kcat, Km for ATP) were measured for each enzyme under the usual assay conditions by determining the dependence of initial rates on ATP concentration. Inhibition data were fit to an equation for competitive inhibition using Kaleidagraph (Synergy Software), or were fit to an equation for competitive tight-binding inhibition using the software KineTic (BioKin, Ltd.).
Inhibition of CDK2/Cyclin A Retinoblastoma Kinase Activity:
CDK2 was purified using published methodology (Rosenblatt et al., “Purification and Crystallization of Human Cyclin-dependent Kinase 2,” J. Mol. Biol., vol. 230, 1993, pp. 1317-1319) from insect cells that had been infected with a baculovirus expression vector. […] A complex of CDK2 and proteolyzed cyclin A was prepared and purified by gel filtration. The substrate for this assay was the same Rb substrate fragment used for the CDK4 assays, and the methodology of the CDK2/delta cyclin A and the CDK4/delta cyclin D3 assays was essentially the same, except that CDK2 was present at 10 nM or 19 nM. The duration of the assay was 60 or 75 minutes, during which the time-dependence of product formation was linear and initial rate conditions were met. And, the percent inhibitions of the compounds of Example O through Example R were calculated as described above and shown in Table 2.

SMILES: Nc1nc(NC2CCN(S(=O)(=O)CCCNc3ccon3)CC2)sc1C(=O)c1c(F)cccc1F [Example V116]
- inhibition at 0.175 µM (HCT-116 cell line): 0%
- inhibition at 0.05 µM (CDK2/Cyclin A): 77%

SMILES: Nc1nc(NC2CCN(S(=O)(=O)CCCNCCC3CCOCC3)CC2)sc1C(=O)c1c(F)cccc1F [Example V164]
- inhibition at 0.175 µM (HCT-116 cell line): 0%
- inhibition at 0.05 µM (CDK2/Cyclin A): 85%

SMILES: Nc1nc(NC2CCN(S(=O)(=O)CCCN3CCC(F)(F)CC3)CC2)sc1C(=O)c1c(F)cccc1F [Example V168]
- inhibition at 0.175 µM (HCT-116 cell line): 37%
- inhibition at 0.05 µM (CDK2/Cyclin A): 83%

SMILES: Nc1nc(NC2CCN(S(=O)(=O)CCCN3CCC(O)CC3)CC2)sc1C(=O)c1c(F)cccc1F [Example V25]
- inhibition at 0.175 µM (HCT-116 cell line): 16%
- inhibition at 0.05 µM (CDK2/Cyclin A): 73%

SMILES: Cc1ccnc(NCCCS(=O)(=O)N2CCC(Nc3nc(N)c(C(=O)c4c(F)cccc4F)s3)CC2)c1 [Example V109]
- inhibition at 0.175 µM (HCT-116 cell line): 0%
- inhibition at 0.05 µM (CDK2/Cyclin A): 85%

SMILES: CCCNCCCS(=O)(=O)N1CCC(Nc2nc(N)c(C(=O)c3c(F)cccc3F)s2)CC1 [Example V56]
- inhibition at 0.175 µM (HCT-116 cell line): 19%
- inhibition at 0.05 µM (CDK2/Cyclin A): 83%

SMILES: Nc1nc(NC2CCN(S(=O)(=O)CCN3CCC[C@@H]3CO)CC2)sc1C(=O)c1c(F)cccc1F [Example S54]
- inhibition at 0.25 µM (HCT-116 cell line; compound at 250 nM): 16%

SMILES: Nc1nc(NC2CCN(S(=O)(=O)CCN3CCC3)CC2)sc1C(=O)c1c(F)cccc1F [Example S174]
- inhibition at 0.25 µM (HCT-116 cell line; compound at 250 nM): 10%

SMILES: CCN1CCCC1CNCCS(=O)(=O)N1CCC(Nc2nc(N)c(C(=O)c3c(F)cccc3F)s2)CC1 (stereo not shown) [Example S70]
- inhibition at 0.25 µM (HCT-116 cell line; compound at 250 nM): 23%

SMILES: CC(CO)NCCS(=O)(=O)N1CCC(Nc2nc(N)c(C(=O)c3c(F)cccc3F)s2)CC1 (stereo not shown) [Example S90]
- inhibition at 0.25 µM (HCT-116 cell line; compound at 250 nM): 7%

SMILES: Nc1nc(NC2CCN(S(=O)(=O)CCNCc3c(F)cccc3F)CC2)sc1C(=O)c1c(F)cccc1F [Example K50, (4-Amino-2-{1-[2-(2,6-difluoro-benzylamino)-ethanesulfonyl]-piperidin-4-ylamino}-thiazol-5-yl)-(2,6-difluoro-phenyl)-methanone]
- IC50 (HCT-116 cell line; first HCT-116 column (c4)): 200 nM
- IC50 (HCT-116 cell line; second HCT-116 column (c5)): 500 nM

SMILES: Cc1cc(C)cc(CNCCS(=O)(=O)N2CCC(Nc3nc(N)c(C(=O)c4c(F)cccc4F)s3)CC2)c1 [Example S143]
- inhibition at 0.25 µM (HCT-116 cell line; compound at 250 nM): 55%

SMILES: Cc1cccc(CNCCS(=O)(=O)N2CCC(Nc3nc(N)c(C(=O)c4c(F)cccc4F)s3)CC2)c1 [Example S101]
- inhibition at 0.25 µM (HCT-116 cell line; compound at 250 nM): 80%

SMILES: Nc1nc(NC2CCN(S(=O)(=O)CCN3CCCCCC3)CC2)sc1C(=O)c1c(F)cccc1F [Example S7]
- inhibition at 0.25 µM (HCT-116 cell line; compound at 250 nM): 22%

SMILES: CCC(CO)NCCS(=O)(=O)N1CCC(Nc2nc(N)c(C(=O)c3c(F)cccc3F)s2)CC1 (stereo not shown) [Example S92]
- inhibition at 0.25 µM (HCT-116 cell line; compound at 250 nM): 8%

SMILES: Nc1nc(NC2CCN(S(=O)(=O)CCNC3CCc4ccccc43)CC2)sc1C(=O)c1c(F)cccc1F (stereo not shown) [Example S73]
- inhibition at 0.25 µM (HCT-116 cell line; compound at 250 nM): 16%

SMILES: Nc1nc(NC2CCN(S(=O)(=O)CCNCCc3cccnc3)CC2)sc1C(=O)c1c(F)cccc1F [Example S167]
- inhibition at 0.25 µM (HCT-116 cell line; compound at 250 nM): 3%

SMILES: CC(C)OCCNCCS(=O)(=O)N1CCC(Nc2nc(N)c(C(=O)c3c(F)cccc3F)s2)CC1 [Example S166]
- inhibition at 0.25 µM (HCT-116 cell line; compound at 250 nM): 9%

SMILES: CCC(COC)NCCS(=O)(=O)N1CCC(Nc2nc(N)c(C(=O)c3c(F)cccc3F)s2)CC1 (stereo not shown) [Example S146]
- inhibition at 0.25 µM (HCT-116 cell line; compound at 250 nM): 42%

SMILES: Nc1nc(NC2CCN(S(=O)(=O)CCN3CCC(CCO)CC3)CC2)sc1C(=O)c1c(F)cccc1F [Example S25]
- inhibition at 0.25 µM (HCT-116 cell line; compound at 250 nM): 10%

SMILES: Nc1nc(NC2CCN(S(=O)(=O)CCNCc3ccc(F)cc3)CC2)sc1C(=O)c1c(F)cccc1F [Example S102]
- inhibition at 0.25 µM (HCT-116 cell line; compound at 250 nM): 57%

SMILES: Nc1nc(NC2CCN(S(=O)(=O)CCNCc3cccc(Cl)c3)CC2)sc1C(=O)c1c(F)cccc1F [Example S142]
- inhibition at 0.25 µM (HCT-116 cell line; compound at 250 nM): 80%

SMILES: COCCN(C)CCS(=O)(=O)N1CCC(Nc2nc(N)c(C(=O)c3c(F)cccc3F)s2)CC1 [Example S65]
- inhibition at 0.25 µM (HCT-116 cell line; compound at 250 nM): 8%

SMILES: COC[C@@H]1CCCN1CCS(=O)(=O)N1CCC(Nc2nc(N)c(C(=O)c3c(F)cccc3F)s2)CC1 [Example S42]
- inhibition at 0.25 µM (HCT-116 cell line; compound at 250 nM): 12%

SMILES: Nc1nc(NC2CCN(S(=O)(=O)CCN3CCC(O)C3)CC2)sc1C(=O)c1c(F)cccc1F (stereo not shown) [Example S18]
- inhibition at 0.25 µM (HCT-116 cell line; compound at 250 nM): 14%

SMILES: CC(C)(NCCS(=O)(=O)N1CCC(Nc2nc(N)c(C(=O)c3c(F)cccc3F)s2)CC1)c1ccccc1 [Example K49, (4-Amino-2-{1-[2-(1-methyl-1-phenyl-ethylamino)-ethanesulfonyl]-piperidin-4-ylamino}-thiazol-5-yl)-(2,6-difluoro-phenyl)-methanone]
- IC50 (HCT-116 cell line; first HCT-116 column (c4)): 180 nM
- IC50 (HCT-116 cell line; second HCT-116 column (c5)): 500 nM

SMILES: CC(C)CNCCS(=O)(=O)N1CCC(Nc2nc(N)c(C(=O)c3c(F)cccc3F)s2)CC1 [Example S111]
- inhibition at 0.25 µM (HCT-116 cell line; compound at 250 nM): 54%

SMILES: Nc1nc(NC2CCN(S(=O)(=O)CCN3CCC(O)CC3)CC2)sc1C(=O)c1c(F)cccc1F [Example S24]
- inhibition at 0.25 µM (HCT-116 cell line; compound at 250 nM): 14%

SMILES: CC(O)CNCCS(=O)(=O)N1CCC(Nc2nc(N)c(C(=O)c3c(F)cccc3F)s2)CC1 (stereo not shown) [Example S110]
- inhibition at 0.25 µM (HCT-116 cell line; compound at 250 nM): 16%

SMILES: Nc1nc(NC2CCN(S(=O)(=O)CCNCc3ccccc3F)CC2)sc1C(=O)c1c(F)cccc1F [Example S95]
- inhibition at 0.25 µM (HCT-116 cell line; compound at 250 nM): 51%

SMILES: C#CC(CC)(CC)NCCS(=O)(=O)N1CCC(Nc2nc(N)c(C(=O)c3c(F)cccc3F)s2)CC1 [Example S175]
- inhibition at 0.25 µM (HCT-116 cell line; compound at 250 nM): 99%

SMILES: CC(C)(CO)NCCS(=O)(=O)N1CCC(Nc2nc(N)c(C(=O)c3c(F)cccc3F)s2)CC1 [Example S80]
- inhibition at 0.25 µM (HCT-116 cell line; compound at 250 nM): 13%

SMILES: Nc1nc(NC2CCN(S(=O)(=O)CCNCCc3ccc(O)cc3)CC2)sc1C(=O)c1c(F)cccc1F [Example S117]
- inhibition at 0.25 µM (HCT-116 cell line; compound at 250 nM): 86%

SMILES: N#CCNCCS(=O)(=O)N1CCC(Nc2nc(N)c(C(=O)c3c(F)cccc3F)s2)CC1 [Example S128]
- % Inhibition HCT116 @ 250 nM (HCT-116 cell line; HCT116 cells, compound at 250 nM, 0.25 µM): 86%

SMILES: Cc1ccc(CNCCS(=O)(=O)N2CCC(Nc3nc(N)c(C(=O)c4c(F)cccc4F)s3)CC2)cc1 [Example S105]
- inhibition at 0.25 µM (HCT-116 cell line; compound at 250 nM): 33%

SMILES: CN(C)C(=O)[C@H]1CCCN1CCS(=O)(=O)N1CCC(Nc2nc(N)c(C(=O)c3c(F)cccc3F)s2)CC1 [Example S66]
- inhibition at 0.25 µM (HCT-116 cell line; compound at 250 nM): 14%

SMILES: CC(CNCCS(=O)(=O)N1CCC(Nc2nc(N)c(C(=O)c3c(F)cccc3F)s2)CC1)N(C)C (stereo not shown) [Example S131]
- inhibition at 0.25 µM (HCT-116 cell line; compound at 250 nM): 17%

SMILES: Nc1nc(NC2CCN(S(=O)(=O)CCNCCc3cccs3)CC2)sc1C(=O)c1c(F)cccc1F [Example S148]
- inhibition at 0.25 µM (HCT-116 cell line; compound at 250 nM): 34%
